The values that follow come from US5405843A, “Quinoline derivatives” (Mitsui Toatsu Chemicals, Incorporated, priority 1988, dated 1995).

For the test, the system named is Adriamycin resistant strain 2780 AD cells of human ovarian cancer A2780 cells. The experiment in a line: Potentiating effect on incorporation of 3H-vincristine into adriamycin-resistant cancer cells. The format is cell-based. To be noted: 20 nM 3H-vincristine; for activity at 1 µg/mL / activity at 10 µg/mL: Homo sapiens, 2780AD, 2 h, control = 100, read-out: 3H-vincristine accumulation; for activity at 1 µg/mL / 3H-vincristine accumulation: compound 1 μg/ml; for activity at 10 µg/mL: compound 10 μg/ml; for 3H-vincristine accumulation: 2 hours, control = 100, 120 min. As to the method:
Potentiating Effect of the Compounds on Incorporation of Anticancer Drugs into Drug-resistant Cancer Cells
Adriamycin resistant strain 2780 AD cells of human ovarian cancer A2780 cells (A. M. Rogan et al., Science 224, 994-996, 1984) were suspended at a concentration of 1×10^6 /ml in RPMI-1640 medium supplemented with 5% fetal calf serum, and 1 ml of the cancer cell suspension was dispensed into each well of a multi-well culture plate (24 wells, […] in diameter) and then incubated at 37° C. in an atmosphere of 5% CO2. After 24 hours incubation, the medium in each well was replaced by 0.5 ml of RPMI-1640 medium supplemented containing 20 nM ^3 H-vincristine (1×10^4 dpm/pmol), 5% fetal calf serum and 10 mM Hepes buffer. Five microliters of a solution of the compound to be tested, which had been dissolved in DMSO and diluted with […] (at a concentration of 1.0 microgram/ml or 10.0 micrograms/ml), was added to each well and the incubation was continued at 37° C. in 5% CO2 for 2 hours. The resultant cells were washed in cold saline-phosphate buffer. In each well was added 0.5 ml of 0.2N NaOH, and the resulting cell suspension in each well was independently transferred into a vial and then heated in a water bath at 56° C. for 30-60 minutes to dissolve the cells. After adding 4 ml of acid aquazole 2, the amount of ^3 H-vincristine incorporated into the cells was determined by a fluid scintillation counter.

For `OC(COc1ccnc2ccccc12)CN1CCN(C(c2ccccc2)c2ccccc2)CC1` (stereo not drawn) [Example 46, 4-[3-(4-Diphenylmethylpiperazine-1-yl)-2-hydroxypropoxy]quinoline], the activity at 1 µg/mL was found to be 142% and the activity at 10 µg/mL came to 987%.

As for `OC(COc1cccc2ncncc12)CN1CCN(C(c2ccccc2)c2ccccc2)CC1` (stereo not drawn) [Example 51, 5-[3-(4-Diphenylmethylpiperazine-1-yl)-2-hydroxypropoxy]quinazoline], the activity at 1 µg/mL turned out to be 534% and the activity at 10 µg/mL amounted to 798%.

Consider `OC(COc1cccc2nc(Cl)ccc12)CN1CCC(C(O)(c2ccccc2)c2ccccc2)CC1` (stereo not drawn) [Example 19, 5-[3-(4-(Diphenyl-hydroxymethyl)piperidine-1-yl)-2-hydroxypropoxy]-2-chloroquinoline], for which the activity at 1 µg/mL stood at 374% and the activity at 10 µg/mL was 524%.

Turning to `OC(COc1cccc2nc(C(F)(F)F)cc(C(F)(F)F)c12)CN1CCN(C2c3ccccc3CCc3ccccc32)CC1` (stereo not drawn) [Example 76, 5-[3-(4-(Dibenzosuberane-5-yl)piperazine-1-yl)-2-hydroxypropoxy]-2,4-bis(trifluoromethyl)quinoline], the activity at 1 µg/mL amounted to 130% and the activity at 10 µg/mL amounted to 304%.

For the molecule `Cc1cc(C)c2c(OCC(O)CN3CCC(=C(c4ccccc4)c4ccccc4)CC3)cccc2n1` (stereo not drawn) [Example 67, 2,4-Dimethyl-5-[3-(4-diphenylmethylenepiperizine-1-yl)-2-hydroxypropoxy]quinoline], the activity at 1 µg/mL was 730%.

On to `OC(CNCCC(c1ccccc1)c1ccccc1)COc1cccc2ncccc12` (stereo not drawn) [Example 69, 5-[3-(3,3-Diphenylpropylamino)-2-hydroxypropoxy]quinoline], for which the activity at 1 µg/mL is 738% and the activity at 10 µg/mL is 941%.

Regarding `CN(C(=O)CCN1CCN(C2c3ccccc3CCc3ccccc32)CC1)c1cccc2ncccc12` [Example 38, 5-[N-methyl-(3-(4-dibenzosuberanylpiperazine-1-yl)-propionamide)]quinoline], the activity at 1 µg/mL was determined as 378% and the activity at 10 µg/mL stood at 819%.

On to `Cc1cc(C(F)(F)F)nc2cccc(OCC(O)CN3CCN(C(c4ccccc4)c4ccccc4)CC3)c12` (stereo not drawn) [Example 56, 2-Trifluoromethyl-4-methyl-5-[3-(4-diphenylmethylpiperazine-1-yl)-2-hydroxypropoxy]quinoline], for which the activity at 1 µg/mL was 321% and the activity at 10 µg/mL was determined as 735%.

`OC(COc1cccc2ncccc12)CN1CCN(C2c3ccccc3Oc3ccccc32)CC1` (stereo not drawn) [Example 72, 5-[3-(4-(Xanthene-9-yl)piperazine-1-yl)-2-hydroxypropoxy]quinoline]: the activity at 1 µg/mL was 112% and the activity at 10 µg/mL was found to be 144%.

Consider `Cc1ccc(OCC(O)CN2CCN(C(c3ccccc3)c3ccccc3)CC2)c2cccnc12` (stereo not drawn) [Example 24, 5-[3-(4-Diphenylmethylpiperazine-1-yl)-2-hydroxypropoxy]-8-methylquinoline], for which the activity at 1 µg/mL is 146% and the activity at 10 µg/mL stood at 931%.

With `Cc1ccc2ncccc2c1OCC(O)CN1CCN(C(c2ccccc2)c2ccccc2)CC1` (stereo not drawn) [Example 23, 5-[3-(4-Diphenylmethylpiperazine-1-yl)-2-hydroxypropoxy]-6-methylguinoline], the activity at 1 µg/mL turned out to be 723%.

Take `OC(CNCCNC1c2ccccc2CCc2ccccc21)COc1cccc2ncccc12` (stereo not drawn) [Example 62, 5-[3-(N'-(Dibenzosuberane-5-yl)ethylenediamino)-2-hydroxypropoxy]quinoline]: the activity at 1 µg/mL was determined as 525%.

With `CSc1ccc2c(OCC(O)CN3CCN(C4c5ccccc5CCc5ccccc54)CC3)cccc2n1` (stereo not drawn) [Example 64, 2-Methylthio-5-[3-(4-(dibenzosuberane-5-yl)piperazine-1-yl)-2-hydroxypropoxy]quinoline], the activity at 1 µg/mL came out at 425% and the activity at 10 µg/mL stood at 900%.

Take `OC(COc1cccc2cccnc12)CN1CCN(C(c2ccccc2)c2ccccc2)CC1` (stereo not drawn) [Example 49, 8-[3-(4-Diphenylmethylpiperazine-1-yl)-2-hydroxypropoxy]-quinoline]: the activity at 1 µg/mL was found to be 213% and the activity at 10 µg/mL amounted to 612%.

`OC(COc1nccc2ccccc12)CN1CCN(C(c2ccccc2)c2ccccc2)CC1` (stereo not drawn) [Example 48, 1-[3-(4-Diphenylmethylpiperazine-1-yl)-2-hydroxypropoxy]isoquinoline]: the activity at 1 µg/mL amounted to 215% and the activity at 10 µg/mL was found to be 798%.

Regarding `OC(CSc1cccc2ncccc12)CN1CCN(C2c3ccccc3CCc3ccccc32)CC1` (stereo not drawn) [Example 75, 5-[3-(4-(Dibenzosuberane-5-yl)piperazine-1-yl)-2-hydroxy-propylthio]quinoline], the activity at 1 µg/mL was 587%.

Regarding `OC(CNCC(c1ccccc1)c1ccccc1)COc1cccc2ncccc12` (stereo not drawn) [Example 70, 5-[3-(2,2-Diphenylethylamino)-2-hydroxypropoxy]quinoline], the activity at 1 µg/mL is 252% and the activity at 10 µg/mL stood at 960%.

Turning to `OC(CSc1cccc2ncccc12)CN1CCN(C(c2ccccc2)c2ccccc2)CC1` (stereo not drawn) [Example 74, 5-[3-(4-Diphenylmethylpiperazine-1-yl)-2-hydroxypropylthio]qunoline], the 3H-vincristine accumulation was 626%.

Turning to `CN(CCC=C1c2ccccc2CCc2ccccc21)CC(O)COc1cccc2ncccc12` (stereo not drawn) [Example 68, 5-(3[N-{3-dibenzosuberane-5-ylidene)propy}-N-methylamino-2-hydroxypropoxy)quinoline], the activity at 1 µg/mL is 671%.

In the case of `OC(COc1cccc2cnccc12)CN1CCN(C(c2ccccc2)c2ccccc2)CC1` (stereo not drawn) [Example 43, 5-[3-(4-Diphenylmethylpiperazine-1-yl)-2-hydroxypropoxy]isoquinoline], the activity at 1 µg/mL was 531%.

With `OC(COc1cccc2cnccc12)CN1CCCN(C(c2ccccc2)c2ccccc2)CC1` (stereo not drawn) [Example 45, 5-[3-(4-Diphenylmethylhomopiperazine-1-yl)-2-hydroxypropoxy]isoquinoline], the activity at 1 µg/mL worked out at 307% and the activity at 10 µg/mL was determined as 982%.

On to `CN(CC(O)CN1CCN(C(c2ccccc2)c2ccccc2)CC1)c1cccc2ncccc12` (stereo not drawn) [Example 30, N-[3-(4-Diphenylmethylpiperazine-1-yl)-2-hydroxypropyl]-N-methyl-5-quinolineamine], for which the activity at 1 µg/mL was 597%.

Take `OC(CSc1cccc2ncccc12)CN1CCN(C(c2ccccc2)c2ccccc2)CC1` (stereo not drawn) [Example 31, 5-[3-(4-Diphenylmethylpiperazine-1-yl)-2-hydroxypropylthio]quinoline]: the activity at 10 µg/mL was 799% and the 3H-vincristine accumulation came out at 428%.

Turning to `CN(C(=O)CCN1CCN(C(c2ccccc2)c2ccccc2)CC1)c1cccc2ncccc12` [Example 37, 5-[N-Methyl-(3-(4-diphenylmethylpiperazine-1-yl)propionamido)]quinoline], the activity at 1 µg/mL is 549% and the activity at 10 µg/mL stood at 1000%.

With `c1ccc(C(c2ccccc2)N2CCN(CCCCOc3cccc4ncccc34)CC2)cc1` [Example 33, 5-[4-(4-Diphenylmethylpiperazine-1-yl)butoxy]quinoline], the activity at 1 µg/mL is 447%.

Regarding `OC(COc1cccc2ccncc12)CN1CCN(C(c2ccccc2)c2ccccc2)CC1` (stereo not drawn) [Example 47, 8-[3-(4-Diphenylmethylpiperazine-1-yl)-2-hydroxypropoxy]isoquinoline], the activity at 1 µg/mL stood at 322% and the activity at 10 µg/mL is 879%.

Consider `CS(=O)(=O)c1ccc2c(OCC(O)CN3CCN(C4c5ccccc5CCc5ccccc54)CC3)cccc2n1` (stereo not drawn) [Example 71, 2-Methylsufonyl-5-[3-(4-(dibenzosuberane-5-yl)piperazine-1-yl)-2-hydroxypropoxy]quinoline], for which the activity at 1 µg/mL turned out to be 501% and the activity at 10 µg/mL stood at 921%.

For `Cc1cc(C(F)(F)F)nc2cccc(OCC(O)CN3CCN(C4c5ccccc5CCc5ccccc54)CC3)c12` (stereo not drawn) [Example 54, 2-Trifluoromethyl-4-methyl-5-[3-(4-(dibenzosuberane-5-yl)piperazine-1-yl)-2-hydroxypropoxy]quinoline], the activity at 1 µg/mL came to 253% and the activity at 10 µg/mL turned out to be 777%.

In the case of `CC(=O)N(CC(O)CN1CCN(C(c2ccccc2)c2ccccc2)CC1)c1cccc2ncccc12` (stereo not drawn) [Example 40, 5-[N-Acetyl-(3-(4-diphenylmethylpiperazine-1-yl)-2-hydroxypropylamino)]quinoline], the activity at 1 µg/mL worked out at 259%.

In the case of `COc1ccc(OCC(O)CN2CCN(C(c3ccccc3)c3ccccc3)CC2)c2cccnc12` (stereo not drawn) [Example 25, 5-[3-(4-Diphenylmethylpiperazine-1-yl)-2-hydroxypropoxy]-8-methoxyquinoline], the activity at 1 µg/mL was 858%.

Take `OC(COc1cccc2ncccc12)CN1CCN(C(c2ccccc2)c2ccncc2)CC1` (stereo not drawn) [Example 52, 5-(3-[4-((4-Pyridyl) -phenylmethyl)piperazine-1-yl]-2-hydroxypropoxy)quinoline]: the activity at 1 µg/mL is 379% and the activity at 10 µg/mL worked out at 910%.
